| Compound | melting point [°C] |
| --- | --- |
| O=C(Cc1ccc(/C=C/C(=O)c2ncc[nH]2)cc1)Nc1cccc2ccccc12 [Compound 17, (E)-2-(4-(3-(1H-imidazol-2-yl)-3-oxoprop-1-en-1-yl)phenyl)-N-(naphthalen-1-yl)acetamide] | 229 to 230 |
| COc1ccc(NC(=O)Cc2ccc(/C=C/C(=O)c3ncc[nH]3)cc2)cc1 [Compound 19, (E)-2-(4-(3-(1H-imidazol-2-yl)-3-oxoprop-1-en-1-yl)phenyl)-N-(4-methoxyphenyl) acetamide] | 224 to 226 |
| O=C(Cc1ccc(/C=C/C(=O)c2ncc[nH]2)cc1)Nc1ccccc1 [Compound 21, (E)-2-(4-(3-(1H-imidazol-2-yl)-3-oxoprop-1-en-1-yl)phenyl)-N-phenylacetamide] | 211 to 214 |
| O=C(Cc1ccc(/C=C/C(=O)c2ncc[nH]2)cc1)NC1CCCCC1 [Compound 23, (E)-2-(4-(3-(1H-imidazol-2-yl)-3-oxoprop-1-en-1-yl)phenyl)-N-cyclohexylacetamide] | 208.5 |
| Cn1ccnc1C(=O)/C=C/c1ccc(CC(=O)Nc2ccc(C(F)(F)F)cc2)cc1 [Compound 26, (E)-2-(4-(3-(1-methyl-1H-imidazol-2-yl)-3-oxoprop-1-en-1-yl)phenyl)-N-(4-(trifluoromethyl)phenyl) acetamide] | 222 to 226 |

Other lines, results leading:

| melting point [°C] | Compound |
| --- | --- |
| 182.5 | Cn1ccnc1C(=O)/C=C/c1ccc(CC(=O)NC2CCCCC2)cc1 [Compound 29, (E)-N-cyclohexyl-2-(4-(3-(1-methyl-1-H-imidazol-2-yl)-3-oxoprop-1-en-1-yl)phenyl) acetamide] |
| 255 | O=C(Cc1ccc(/C=C/C(=O)c2ncc[nH]2)cc1)Nc1cc(F)c(F)c(F)c1 [Compound 33, (E)-2-(4-(3-(1H-imidazol-2-yl)-3-oxoprop-1-en-1-yl)phenyl)-N-(3,4,5-trifluorophenyl) acetamide] |
| 235 | O=C(Cc1ccc(/C=C/C(=O)c2ncc[nH]2)cc1)Nc1c(F)c(F)c(F)c(F)c1F [Compound 35, (E)-2-(4-(3-(1H-imidazol-2-yl)-3-oxoprop-1-en-1-yl)phenyl)-N-(perfluorophenyl)acetamide] |
| 243 | O=C(Cc1ccc(/C=C/C(=O)c2ncc[nH]2)cc1)Nc1cc(C(F)(F)F)cc(C(F)(F)F)c1 [Compound 37, (E)-2-(4-(3-(1H-imidazol-2-yl)-3-oxoprop-1-en-1-yl)phenyl)-N-(3,5-bis(trifluoromethyl)phenyl) acetamide] |

Reference: patent US11098038B2, “Imidazole-based anticancer agents and derivatives thereof, and methods of making and using same” (The University of Toledo, priority 2017, dated 2021)
